Laboratory results as given in ChEMBL document CHEMBL2413072, “Synthesis and in vitro anticancer studies of novel C-2 arylidene congeners of lantadenes” (2013).

Legend:
Type in all cases: functional
OVCAR-8 [1] = assay: Growth inhibition of human OVCAR8 cells assessed as cell growth at 10^-4 M by sulforhodamine B assay; conditions: read-out: Activity
MDA-MB-435 = assay: Growth inhibition of human MDA-MB-435 cells assessed as cell growth at 10^-4 M by sulforhodamine B assay; conditions: read-out: Activity
PC-3 = assay: Growth inhibition of human PC3 cells assessed as cell growth at 10^-6 M by sulforhodamine B assay; conditions: read-out: Activity
[2] = Growth inhibition of human Hs 578T cells assessed as cell growth at 10^-6 M by sulforhodamine B assay; conditions: read-out: Activity
OVCAR-8 [3] = assay: Growth inhibition of human OVCAR8 cells by sulforhodamine B assay
SW-620 [4] = assay: Growth inhibition of human SW620 cells assessed as cell growth at 10^-4 M by sulforhodamine B assay; conditions: read-out: Activity
MCF7 [5] = assay: Growth inhibition of human MCF7 cells assessed as cell growth at 10^-4 M by sulforhodamine B assay; conditions: read-out: Activity
SNB-19 = assay: Growth inhibition of human SNB19 cells assessed as cell growth at 10^-6 M by sulforhodamine B assay; conditions: read-out: Activity
KM12 = assay: Growth inhibition of human KM12 cells assessed as cell growth at 10^-4 M by sulforhodamine B assay; conditions: read-out: Activity
MCF7 [6] = assay: Growth inhibition of human MCF7 cells assessed as cell growth at 10^-6 M by sulforhodamine B assay; conditions: read-out: Activity
M14 = assay: Growth inhibition of human M14 cells assessed as cell growth at 10^-8 M by sulforhodamine B assay; conditions: read-out: Activity
SW-620 [7] = assay: Growth inhibition of human SW620 cells by sulforhodamine B assay
SF-268 [8] = assay: Growth inhibition of human SF268 cells by sulforhodamine B assay
IGROV-1 = assay: Growth inhibition of human IGROV1 cells assessed as cell growth at 10^-6 M by sulforhodamine B assay; conditions: read-out: Activity
OVCAR-3 = assay: Growth inhibition of human OVCAR3 cells assessed as cell growth at 10^-6 M by sulforhodamine B assay; conditions: read-out: Activity
BT-549 = assay: Growth inhibition of human BT549 cells assessed as cell growth at 10^-7 M by sulforhodamine B assay; conditions: read-out: Activity
SF-295 = assay: Growth inhibition of human SF295 cells by sulforhodamine B assay
[9] = Growth inhibition of human NCI-ADR-RES cells assessed as cell growth at 10^-7 M by sulforhodamine B assay; conditions: read-out: Activity
RXF 393 = assay: Growth inhibition of human RXF393 cells assessed as cell growth at 10^-4 M by sulforhodamine B assay; conditions: read-out: Activity
OVCAR-4 [10] = assay: Growth inhibition of human OVCAR4 cells assessed as cell growth at 10^-6 M by sulforhodamine B assay; conditions: read-out: Activity
SF-539 [11] = assay: Growth inhibition of human SF539 cells assessed as cell growth at 10^-7 M by sulforhodamine B assay; conditions: read-out: Activity
UACC-62 = assay: Growth inhibition of human UACC62 cells assessed as cell growth at 10^-6 M by sulforhodamine B assay; conditions: read-out: Activity
SNB-75 = assay: Growth inhibition of human SNB75 cells assessed as cell growth at 10^-7 M by sulforhodamine B assay; conditions: read-out: Activity
SN12C = assay: Growth inhibition of human SN12C cells assessed as cell growth at 10^-6 M by sulforhodamine B assay; conditions: read-out: Activity
OVCAR-5 = assay: Growth inhibition of human OVCAR5 cells assessed as cell growth at 10^-4 M by sulforhodamine B assay; conditions: read-out: Activity
RPMI-8226 [12] = assay: Growth inhibition of human RPMI8226 cells assessed as cell growth at 10^-7 M by sulforhodamine B assay; conditions: read-out: Activity
OVCAR-4 [13] = assay: Growth inhibition of human OVCAR4 cells by sulforhodamine B assay
COLO 205 = assay: Growth inhibition of human COLO205 cells assessed as cell growth at 10^-7 M by sulforhodamine B assay; conditions: read-out: Activity
T47D [14] = assay: Growth inhibition of human T47D cells assessed as cell growth at 10^-7 M by sulforhodamine B assay; conditions: read-out: Activity
SF-268 [15] = assay: Growth inhibition of human SF268 cells assessed as cell growth at 10^-4 M by sulforhodamine B assay; conditions: read-out: Activity
NCI-H226 = assay: Growth inhibition of human NCI-H226 cells assessed as cell growth at 10^-8 M by sulforhodamine B assay; conditions: read-out: Activity
HCT-116 = assay: Growth inhibition of human HCT116 cells assessed as cell growth at 10^-4 M by sulforhodamine B assay; conditions: read-out: Activity
OVCAR-4 [16] = assay: Growth inhibition of human OVCAR4 cells assessed as cell growth at 10^-7 M by sulforhodamine B assay; conditions: read-out: Activity
T47D [17] = assay: Growth inhibition of human T47D cells assessed as cell growth at 10^-6 M by sulforhodamine B assay; conditions: read-out: Activity
RPMI-8226 [18] = assay: Growth inhibition of human RPMI8226 cells assessed as cell growth at 10^-6 M by sulforhodamine B assay; conditions: read-out: Activity
HCT-15 = assay: Growth inhibition of human HCT15 cells assessed as cell growth at 10^-6 M by sulforhodamine B assay; conditions: read-out: Activity
HT-29 = assay: Growth inhibition of human HT-29 cells by sulforhodamine B assay
SF-539 [19] = assay: Growth inhibition of human SF539 cells by sulforhodamine B assay
NCI-H522 = assay: Growth inhibition of human NCI-H522 cells assessed as cell growth at 10^-6 M by sulforhodamine B assay; conditions: read-out: Activity
CCRF-CEM = assay: Growth inhibition of human CCRF-CEM cells assessed as cell growth at 10^-8 M by sulforhodamine B assay; conditions: read-out: Activity
ACHN = assay: Growth inhibition of human ACHN cells assessed as cell growth at 10^-8 M by sulforhodamine B assay; conditions: read-out: Activity
MOLT-4 = assay: Growth inhibition of human MOLT4 cells assessed as cell growth at 10^-8 M by sulforhodamine B assay; conditions: read-out: Activity
[20] = read-out: LC50 (the source's name)
[21] = read-out: pLC50 (the source's name) (converted)

In the case of `CC(C)=CC(=O)O[C@@H]1CC(C)(C)C[C@H]2C3=CC[C@@H]4[C@@]5(C)CCC(=O)C(C)(C)[C@@H]5CC[C@@]4(C)[C@]3(C)CC[C@@]12C(=O)O`, the growth at 100 µM (OVCAR-8 [1]) is reported as 11%, the growth at 100 µM (MDA-MB-435) is reported as 1% and the growth at 1 µM (PC-3) is reported as 56%. For the same compound, the growth at 1 µM [2] was 86%, the GI50 (OVCAR-8 [3]; read-out: GI50) was 3.81 µM and the CC50 (OVCAR-8 [3]; [20]) was > 100 µM. The TGI (OVCAR-8 [3]; read-out: TGI) was > 100 µM, the GI50 (OVCAR-8 [3]; read-out: pGI50 (converted)) was 3.8 µM and the CC50 (OVCAR-8 [3]; [21]) was > 100 µM. For the same compound, the TGI (OVCAR-8 [3]; read-out: pTGI (converted)) was > 100 µM, the growth at 100 µM (SW-620 [4]) was -22% and the growth at 100 µM (MCF7 [5]) was 2%. It also gave a growth at 1 µM (SNB-19) of 87%, a growth at 100 µM (KM12) of -69% and a growth at 1 µM (MCF7 [6]) of 84%. The growth at 0.01 µM (M14) was 98%, the GI50 (SW-620 [7]; read-out: GI50) was 4 µM and the CC50 (SW-620 [7]; [20]) was > 100 µM. For the same compound, the TGI (SW-620 [7]; read-out: TGI) was 36.1 µM, the GI50 (SW-620 [7]; read-out: pGI50 (converted)) was 3.98 µM and the CC50 (SW-620 [7]; [21]) was > 100 µM. The TGI (SW-620 [7]; read-out: pTGI (converted)) was 36.3 µM, the GI50 (SF-268 [8]; read-out: GI50) was 5.27 µM and the LC50 (SF-268 [8]; read-out: LC50) was > 100 µM. For the same compound, the TGI (SF-268 [8]; read-out: TGI) was 29.4 µM, the GI50 (SF-268 [8]; read-out: pGI50 (converted)) was 5.25 µM and the LC50 (SF-268 [8]; read-out: pLC50 (converted)) was > 100 µM. The TGI (SF-268 [8]; read-out: pTGI (converted)) was 29.5 µM, the growth at 1 µM (IGROV-1) was 98% and the growth at 1 µM (OVCAR-3) was 84%. The growth at 0.1 µM (BT-549) was 109%, the GI50 (SF-295; read-out: GI50) was 1.7 µM and the CC50 (SF-295; [20]) was 72.7 µM. For the same compound, the TGI (SF-295; read-out: TGI) was 11.9 µM, the GI50 (SF-295; read-out: pGI50 (converted)) was 1.7 µM and the CC50 (SF-295; [21]) was 72.4 µM. It also gave a TGI (SF-295; read-out: pTGI (converted)) of 12 µM, a growth at 0.1 µM [9] of 95% and a growth at 100 µM (RXF 393) of -67%. For the same compound, the growth at 1 µM (OVCAR-4 [10]) was 83%, the growth at 0.1 µM (SF-539 [11]) was 91% and the growth at 1 µM (UACC-62) was 73%. For the same compound, the growth at 0.1 µM (SNB-75) was 90%, the growth at 1 µM (SN12C) was 80% and the growth at 100 µM (OVCAR-5) was -39%. The growth at 0.1 µM (RPMI-8226 [12]) was 91%, the GI50 (OVCAR-4 [13]; read-out: GI50) was 5.07 µM and the CC50 (OVCAR-4 [13]; [20]) was > 100 µM. The TGI (OVCAR-4 [13]; read-out: TGI) was > 100 µM, the GI50 (OVCAR-4 [13]; read-out: pGI50 (converted)) was 5.01 µM and the CC50 (OVCAR-4 [13]; [21]) was > 100 µM. For the same compound, the TGI (OVCAR-4 [13]; read-out: pTGI (converted)) was > 100 µM, the growth at 0.1 µM (COLO 205) was 103% and the growth at 0.1 µM (T47D [14]) was 96%. The growth at 100 µM (SF-268 [15]) was -38%, the growth at 0.01 µM (NCI-H226) was 95% and the growth at 100 µM (HCT-116) was -6%. For the same compound, the growth at 0.1 µM (OVCAR-4 [16]) was 97%, the growth at 1 µM (T47D [17]) was 92% and the growth at 1 µM (RPMI-8226 [18]) was 58%. For the same compound, the growth at 1 µM (HCT-15) was 55%, the GI50 (HT-29; read-out: GI50) was 3.94 µM and the LC50 (50% cell kill) (HT-29; read-out: LC50) was > 100 µM. For the same compound, the TGI (HT-29; read-out: TGI) was 32.3 µM, the GI50 (HT-29; read-out: pGI50 (converted)) was 3.98 µM and the LC50 (50% cell kill) (HT-29; read-out: pLC50 (converted)) was > 100 µM. The TGI (HT-29; read-out: pTGI (converted)) was 32.4 µM, the GI50 (SF-539 [19]; read-out: GI50) was 4.75 µM and the CC50 (SF-539 [19]; [20]) was > 100 µM. For the same compound, the TGI (SF-539 [19]; read-out: TGI) was 24.2 µM, the GI50 (SF-539 [19]; read-out: pGI50 (converted)) was 4.79 µM and the CC50 (SF-539 [19]; [21]) was > 100 µM. For the same compound, the TGI (SF-539 [19]; read-out: pTGI (converted)) was 24 µM, the growth at 1 µM (NCI-H522) was 82% and the growth at 0.01 µM (CCRF-CEM) was 104%. It also gave a growth at 0.01 µM (ACHN) of 97% and a growth at 0.01 µM (MOLT-4) of 107%.
